From BindingDB's records for doi:10.1016/j.bmc.2012.11.004 (Romanian Academy, 2013)

Each molecule was assayed against Carbonic anhydrase 2 (Homo sapiens, UniProt P00918) (assay: Inhibition of human carbonic anhydrase-2).

SMILES | Ki
COc1ccc(OC)c(NC(=O)Nc2ccc(NS(N)(=O)=O)cc2)c1 | 430 nM
NS(=O)(=O)Nc1ccc(NC(=O)Nc2cccc([N+](=O)[O-])c2)cc1 | 430 nM
COc1ccc(NC(=O)Nc2ccc(NS(N)(=O)=O)cc2)c(C)c1 | 342 nM
COc1ccc(C)cc1NC(=O)Nc1ccc(NS(N)(=O)=O)cc1 | 430 nM
CCCCOc1ccc(NC(=O)Nc2ccc(NS(N)(=O)=O)cc2)cc1 | 342 nM
Cc1cc(C)cc(NC(=O)Nc2ccc(NS(N)(=O)=O)cc2)c1 | 682 nM
NS(=O)(=O)Nc1ccc(NC(=O)NCCc2ccccc2)cc1 | 171 nM
NS(=O)(=O)Nc1ccc(NC(=O)Nc2ccccc2-c2ccccc2)cc1 | 858 nM
CC(C)c1ccccc1NC(=O)Nc1ccc(NS(N)(=O)=O)cc1 | 682 nM
NS(=O)(=O)Nc1ccc(NC(=O)NCc2ccccc2)cc1 | 136 nM
NS(=O)(=O)Nc1ccc(NC(=O)Nc2ccc(Cl)cc2)cc1 | 342 nM
CC(NC(=O)Nc1ccc(NS(N)(=O)=O)cc1)c1cccc2ccccc12 (stereo not given) | 430 nM
NS(=O)(=O)Nc1ccc(NC(=O)NC2CCCCC2)cc1 | 342 nM
NS(=O)(=O)Oc1ccc(NC(=O)NC23CC4CC(CC(C4)C2)C3)cc1 | 430 nM

What follows are molecules tested against Carbonic anhydrase 1 (Homo sapiens, UniProt P00915) (assay: Inhibition of human carbonic anhydrase-1).
Sequence of Carbonic anhydrase 1 (P00915 whole entry): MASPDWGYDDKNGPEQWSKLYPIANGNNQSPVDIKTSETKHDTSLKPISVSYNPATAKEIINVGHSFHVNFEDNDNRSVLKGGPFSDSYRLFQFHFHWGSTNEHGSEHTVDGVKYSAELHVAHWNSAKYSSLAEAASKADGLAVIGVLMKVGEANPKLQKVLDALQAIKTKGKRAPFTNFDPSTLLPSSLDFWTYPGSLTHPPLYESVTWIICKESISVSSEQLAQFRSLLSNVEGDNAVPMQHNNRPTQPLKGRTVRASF

SMILES | Ki
NS(=O)(=O)Nc1ccc(NC(=O)Nc2cccc([N+](=O)[O-])c2)cc1 | 2150 nM
COc1ccc(NC(=O)Nc2ccc(NS(N)(=O)=O)cc2)c(C)c1 | 3420 nM
CCCCOc1ccc(NC(=O)Nc2ccc(NS(N)(=O)=O)cc2)cc1 | 1710 nM
NS(=O)(=O)Nc1ccc(NC(=O)NCCc2ccccc2)cc1 | 2710 nM
Cc1cc(Cl)ccc1NC(=O)Nc1ccc(NS(N)(=O)=O)cc1 | 4300 nM
NS(=O)(=O)Nc1ccc(NC(=O)NCc2ccccc2)cc1 | 2710 nM
NS(=O)(=O)Nc1ccc(NC(=O)Nc2ccc(Cl)cc2)cc1 | 3420 nM
NS(=O)(=O)Nc1ccc(NC(=O)NC2CCCCC2)cc1 | 4300 nM
NS(=O)(=O)Nc1ccc(NC(=O)NCc2ccco2)cc1 | 6660 nM

Each molecule was assayed against Carbonic anhydrase 12 (Homo sapiens, UniProt O43570) (assay: Inhibition of human carbonic anhydrase-12).
Sequence of Carbonic anhydrase 12 (O43570 whole entry): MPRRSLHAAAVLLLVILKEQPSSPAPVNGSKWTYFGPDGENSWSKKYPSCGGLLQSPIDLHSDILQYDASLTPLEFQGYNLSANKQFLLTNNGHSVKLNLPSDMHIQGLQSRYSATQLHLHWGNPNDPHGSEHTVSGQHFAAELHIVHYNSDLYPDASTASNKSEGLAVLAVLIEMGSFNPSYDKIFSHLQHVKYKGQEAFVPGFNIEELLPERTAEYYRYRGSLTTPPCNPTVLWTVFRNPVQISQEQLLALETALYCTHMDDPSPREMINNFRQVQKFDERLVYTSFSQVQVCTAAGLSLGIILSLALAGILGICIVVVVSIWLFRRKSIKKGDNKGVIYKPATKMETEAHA

SMILES | Ki
NS(=O)(=O)Nc1ccc(NC(=O)Nc2cccc([N+](=O)[O-])c2)cc1 | 9 nM
COc1ccc(NC(=O)Nc2ccc(NS(N)(=O)=O)cc2)c(C)c1 | 34 nM
COc1ccc(C)cc1NC(=O)Nc1ccc(NS(N)(=O)=O)cc1 | 27 nM
NS(=O)(=O)Nc1ccc(NC(=O)NCCc2ccccc2)cc1 | 9 nM
NS(=O)(=O)Nc1ccc(NC(=O)Nc2ccccc2-c2ccccc2)cc1 | 216 nM
Cc1cc(Cl)ccc1NC(=O)Nc1ccc(NS(N)(=O)=O)cc1 | 17 nM
NS(=O)(=O)Nc1ccc(NC(=O)NCc2ccccc2)cc1 | 9 nM
NS(=O)(=O)Nc1ccc(NC(=O)Nc2ccc(Cl)cc2)cc1 | 27 nM
CC(NC(=O)Nc1ccc(NS(N)(=O)=O)cc1)c1cccc2ccccc12 (stereo not given) | 27 nM
NS(=O)(=O)Nc1ccc(NC(=O)NC2CCCCC2)cc1 | 108 nM
NS(=O)(=O)Nc1ccc(NC(=O)NCc2ccco2)cc1 | 11 nM
NS(=O)(=O)Oc1ccc(NC(=O)NC23CC4CC(CC(C4)C2)C3)cc1 | 43 nM
